Experimental data as given in patent US7253138B2, “Corrosion and gas hydrate inhibitors having improved water solubility and increased biodegradability” (Clariant Produkte (Deutschland) GmbH, priority 2003, dated 2007).

Legend:
[1] = Shell wheel test (corrosion inhibition); settings: salt water/petroleum mixture (9:1.5% NaCl solution, pH 3.5 with acetic acid), 40 rpm, 70° C., 24 hours; 50 ppm of a 40% solution of the inhibitor; from mass reduction vs blank
Description: The compounds according to the invention were tested as corrosion inhibitors in the Shell wheel test. Coupons of carbon steel (DIN 1.1203 having 15 cm^2 surface area) were immersed in a salt water/petroleum mixture (9:1.5% NaCl solution, adjusted to pH 3.5 using acetic acid) and subjected to this medium at a rotation rate of 40 rpm at 70° C. for 24 hours. The dosage of the inhibitor was 50 ppm of a 40% solution of the inhibitor. The protection values were calculated from the mass reduction of the coupons, based on a blank value.
In the table which follows, “comparison” refers to a commercial soya fatty acid amidopropyl-N,N-dimethylammonium carboxymethyl betaine described by EP-B-0 446 616 (prior art corrosion inhibitor).

[2] = LPR test (corrosion inhibition, test conditions similar to ASTM D 2776)
Description: The products were also tested in the LPR test (test conditions similar to ASTM D 2776).

Agitation foam method = assay type: physicochemical; settings: 50 ml of a 3% aqueous solution in demineralized water, agitated 20 times within 10 sec in closed 100 ml cylinder
Description: The foam properties were tested with the agitation foam method. To this end, 50 ml of a 3% aqueous solution of the appropriate corrosion inhibitor in demineralized water were agitated in a closed 100 ml measuring cylinder 20 times within 10 sec. On completion of the agitation, the foaming behavior was assessed using the total volume of the solution (foam height) and the foam decomposition time (time until attainment of the starting volume of 50 ml).

Substance | Foaming behavior (Agitation foam method) | ø Protection % [1] | Protection after 10 min [2] | Protection after 30 min [2] | Protection after 60 min [2]
Dodecenyl-/tetradecenylsuccinimido-N,N-dimethylpropylammonium N-methylcarboxyl betaine [Betaine from example 7] |  | 84.9% | 72.5% | 92.0% | 98.1%
Pentapropylenesuccinimido-N,N-dimethylpropylammonium N-methylcarboxyl betaine [Betaine from example 9] | Weakly foaming | 90.4% | 77.9% | 94.0% | 99.8%
Polyisobutenylsuccinimido-N,N-dimethylpropylammonium N-methyl-carboxyl betaine [Betaine from example 12] |  | 82.7% | 70.0% | 79.4% | 86.3%
Tetrapropylenesuccinimido-N,N-dimethylpropylammonium N-methylcarboxyl betaine [Betaine from example 8] |  | 84.0% | 74.0% | 81.3% | 84.9%

Second part, led by results:

Foaming behavior (Agitation foam method) | Substance | ø Protection % [1] | Protection after 10 min [2] | Protection after 30 min [2] | Protection after 60 min [2]
Weakly foaming | Polyisobutenylsuccinimido-N,N-dimethylpropylammonium N-methyl-carboxyl betaine [Betaine from example 10] | 90.1% | 79.1% | 92.3% | 99.2%
Weakly foaming | Polyisobutenylsuccinimido-N,N-dimethylpropylammonium N-methyl-carboxyl betaine [Betaine from example 11] | 80.6% | 61.9% | 70.6% | 80.6%
Strongly foaming | soya fatty acid amidopropyl-N,N-dimethylammonium carboxymethyl betaine [Comparison, reference compound] | 75.4% | 45.9% | 59.2% | 64.2%
